From patent US9168266B2, “Hybrid diazeniumdiolated compounds, pharmaceutical compositions, and method of treating cancer” (The United States of America, as represented by the …, priority 2011, dated 2015)
Where two headings read alike, the source gives them in different places.

How the values were obtained:
[1] = system: H1703; assay: MTT cell proliferation assay; format: cell-based
Description: (§1) Cell lines were obtained from the American Type Culture Collection (Manassas, Va.) and cultured according to the supplier's protocol. For proliferation assays cells were seeded at 1×10^4 per well (H1693, H322M, H1703, H1944, H1355, H2122, H441, H1568) or 5×10^3 per well (H460, H1792, A549, H2023, H2030, H23) in 96-well plates and allowed to adhere for 24 h. Compounds were prepared as 10 mM stock solutions in DMSO. Increasing drug concentrations in 10 μl of PBS were added to 100 μl of the culture medium for 72 h. MTT assay (Promega, Madison, Wis.) was performed according to the manufacturer's protocol. Each concentration was represented in six repeats, and the screening was performed as at least two independent experiments. IC50 values were calculated by using Sigma Plot software (Systat Software, Inc., San Jose, Calif.).

[2] = system: A549; assay: MTT cell proliferation assay; format: cell-based; details: A549, 72 h
Description: as §1

[3] = system: H1355; assay: MTT cell proliferation assay; format: cell-based
Description: as §1

[4] = system: H1792; assay: MTT cell proliferation assay; format: cell-based
Description: as §1

[5] = system: H23; assay: MTT cell proliferation assay; format: cell-based
Description: as §1

[6] = system: H322M; assay: MTT cell proliferation assay; format: cell-based; details: 72 h
Description: as §1

[7] = system: H1568; assay: MTT cell proliferation assay; format: cell-based
Description: as §1

[8] = system: H2023; assay: MTT cell proliferation assay; format: cell-based
Description: as §1

[9] = system: H1944; assay: MTT cell proliferation assay; format: cell-based
Description: as §1

[10] = system: H441; assay: MTT cell proliferation assay; format: cell-based
Description: as §1

[11] = system: H1693; assay: MTT cell proliferation assay; format: cell-based
Description: as §1

[12] = system: H2030; assay: MTT cell proliferation assay; format: cell-based
Description: as §1

[13] = system: H2122; assay: MTT cell proliferation assay; format: cell-based
Description: as §1

[14] = system: H460; assay: MTT cell proliferation assay; format: cell-based, human
Description: as §1

[15] = target: T1, PARP enzyme (Homo sapiens, UniProt P09874); assay: PARP enzyme inhibition, HT Universal Colorimetric PARP assay kit with GSH; format: biochemical; details: GSH 1 mM added to activate prodrugs; absorbance 450 nm
T1 construct: purchased Trevigen, Gaithersburg, Md
Description: PARP enzyme inhibition was measured using HT Universal Colorimetric 96-well PARP assay kit (Trevigen, Gaithersburg, Md.), according to manufacturer's protocol with small modifications. GSH (1 mM final concentration) was added to the wells containing inhibitors, to allow activation of the prodrugs. The absorbance at 450 nm was measured.

[16] = system: NSCLC cells; assay: Western blot for cleaved caspase 7 (apoptosis); format: cell-based; details: 10 μm, DMSO control
Description: (§2) The alkaline comet assay was performed as described (Romanowska et al., Free Radical Biol. Med., 43: 1145-1155 (2007)). Western blot analysis was performed as described previously (Maciag et al., J. Pharmacol. Exp. Ther., 336: 313-320 (2011)). Primary antibodies for cleaved caspase 7 (Cell Signaling Technology, Danvers, Mass.) were used.

[17] = system: H1703 lung adenocarcinoma cells; assay: Intracellular ROS/RNS level, DCF fluorescence; format: cell-based; details: 10 μM, 60 min, versus DMSO
Description: Intracellular level of reactive oxygen/nitrogen species was quantified by the oxidation of the ROS/RNS-sensitive fluorophore 5-(and-6)-chloromethyl-2′,7′-dichlorodihydrofluorescein diacetate (Invitrogen, Carlsbad, Calif.). Cells growing on six-well plates (6×10^5/well) were loaded with 5 μM 5-(and-6)-chloromethyl-2′,7′-dichlorodihydrofluorescein diacetate in Hanks' balanced salt solution (HBSS) at 37° C. and 5% CO2. After 30 min of incubation, HBSS containing the probe was removed, cells were rinsed with HBSS, and 3 ml of fresh HBSS was added to each well followed by the addition of compounds (10 μM) or DMSO as a control. After 60 min, the cells were collected by scraping in HBSS, and 2′,7′-dichlorofluorescein (DCF) fluorescence was measured by using a PerkinElmer Life and Analytical Sciences (Waltham, Mass.) LS50B luminescence spectrometer with the excitation source at 488 nm and emission at 530 nm.

[18] = system: H1703 lung adenocarcinoma cells; assay: Intracellular NO release, DAF-FM diacetate fluorescence; format: cell-based; details: 10 μM; for intracellular NO release (DAF fluorescence): 30 min, H1703 cells; for cell permeability: inferred from intracellular NO release
Description: The intracellular level of nitric oxide after treatment with the compounds JS-59-183 or JS-60-178 was quantified by using the NO-sensitive fluorophore 4-amino-5-methylamino-2,7 difluorofluorescein (DAF-FM) diacetate (Invitrogen, Carlsbad, Calif.). Cells growing on six-well plates were loaded with 2.5 μM DAF-FM diacetate in HBSS at 37° C. and 5% CO2. After 30 min of incubation, the cells were rinsed with HBSS to remove excess probe, and compounds in fresh HBSS was added to the cells at 10 μM final concentration. After 30 min incubation, the fluorescence of the benzotriazole derivative formed on DAF-FM's reaction with aerobic NO was analyzed by using a PerkinElmer Life and Analytical Sciences LS50B luminescence spectrometer with the excitation source at 495 nm and emission at 515 nm. All experiments were performed at least three times, each time at least in triplicate.

[19] = system: NSCLC cell lines; assay: MTT cell proliferation assay, panel summary; format: cell-based; details: range over the NSCLC cell lines, 72 h, read-out: IC50 for growth inhibition across NSCLC cell lines
Description: as §1

[20] = system: NSCLC cells; assay: Alkaline comet assay (DNA strand breaks); format: cell-based
Description: as §2

T1 sequence (P09874 whole entry): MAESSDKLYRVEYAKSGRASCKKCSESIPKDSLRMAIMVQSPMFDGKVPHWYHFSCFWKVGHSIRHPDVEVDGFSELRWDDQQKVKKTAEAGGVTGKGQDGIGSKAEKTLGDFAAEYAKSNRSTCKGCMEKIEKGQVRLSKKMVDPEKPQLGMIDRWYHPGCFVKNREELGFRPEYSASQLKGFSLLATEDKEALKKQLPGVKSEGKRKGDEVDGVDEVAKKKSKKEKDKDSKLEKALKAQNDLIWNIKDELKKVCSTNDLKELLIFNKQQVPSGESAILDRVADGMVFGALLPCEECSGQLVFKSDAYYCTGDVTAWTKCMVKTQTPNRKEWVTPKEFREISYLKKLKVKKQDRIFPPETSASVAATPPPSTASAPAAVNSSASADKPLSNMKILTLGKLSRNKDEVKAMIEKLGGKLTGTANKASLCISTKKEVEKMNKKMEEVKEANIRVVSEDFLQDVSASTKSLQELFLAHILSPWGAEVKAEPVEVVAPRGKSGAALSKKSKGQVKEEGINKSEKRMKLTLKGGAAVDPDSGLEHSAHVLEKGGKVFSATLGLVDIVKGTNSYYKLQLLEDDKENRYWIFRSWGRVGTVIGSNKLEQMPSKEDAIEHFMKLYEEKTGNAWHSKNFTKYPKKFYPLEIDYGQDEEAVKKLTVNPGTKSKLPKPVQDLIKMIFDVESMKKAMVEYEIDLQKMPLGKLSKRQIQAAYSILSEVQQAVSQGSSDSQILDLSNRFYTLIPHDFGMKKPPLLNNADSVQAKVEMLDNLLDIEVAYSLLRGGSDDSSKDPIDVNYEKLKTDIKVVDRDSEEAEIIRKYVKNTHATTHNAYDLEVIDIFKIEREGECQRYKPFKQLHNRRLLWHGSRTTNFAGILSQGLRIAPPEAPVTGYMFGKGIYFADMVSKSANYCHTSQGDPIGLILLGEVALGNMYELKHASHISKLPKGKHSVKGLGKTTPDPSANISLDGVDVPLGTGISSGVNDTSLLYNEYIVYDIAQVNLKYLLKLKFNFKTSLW

SMILES	TGI (total growth inhibition) ([1]; H1703, 72 h)	TGI (total growth inhibition) [2]	TGI (total growth inhibition) ([3]; H1355, 72 h)	TGI (total growth inhibition) ([4]; H1792, 72 h)	TGI (total growth inhibition) ([5]; H23, 72 h, MTT)	TGI (total growth inhibition) ([6]; H322M, MTT)	TGI (total growth inhibition) ([7]; H1568, 72 h)	TGI (total growth inhibition) ([8]; H2023, 72 h, MTT)	TGI (total growth inhibition) ([9]; H1944, 72 h)	TGI (total growth inhibition) ([10]; H441, 72 h)	TGI (total growth inhibition) ([11]; H1693, 72 h)	TGI (total growth inhibition) ([12]; H2030, 72 h)	TGI (total growth inhibition) ([13]; H2122, 72 h)	TGI (total growth inhibition) ([14]; H460, 72 h)	IC50 [15]	apoptotic signal (cleaved caspase 7) [16]	ROS generation (DCF fluorescence) [17]	intracellular NO release (DAF fluorescence) [18]	cell permeability [18]	other results
O=C(c1cccc(Cc2n[nH]c(=O)c3ccccc23)c1)N1CCN([N+]([O-])=NOc2ccc([N+](=O)[O-])cc2[N+](=O)[O-])CC1 [JS-59-183, 2,4-dinitrophenyl 4-[5-[(4-oxo-3H-phthalazin-1-yl)methyl]-benzoyl]piperazine-1-yl-1-ium-1,2-diolate]	11.2 µM	26.0 µM	23.0 µM	20.0 µM	15.2 µM	14.0 µM	9.0 µM	32.5 µM	28.0 µM	11.7 µM	7.3 µM	25.0 µM	25.0 µM	24.8 µM	0.00825 µM	strong apoptotic signal	increase in ROS generation	decompose within the cell releasing NO	cell permeable	IC50 ([1]; H1703, 72 h): 6.8 µM; IC50 [2]: 16.8 µM; IC50 ([3]; H1355, 72 h): 11.4 µM; IC50 ([4]; H1792, 72 h): 14 µM; IC50 ([5]; H23, 72 h, MTT, read-out: IC50): 7.5 µM; IC50 ([6]; H322M, MTT, read-out: IC50): 9 µM; IC50 ([7]; H1568, 72 h): 6.5 µM; IC50 ([8]; H2023, 72 h, MTT, read-out: IC50): 19.4 µM; IC50 ([9]; H1944, 72 h): 14 µM; IC50 ([10]; H441, 72 h): 8.1 µM; IC50 ([11]; H1693, 72 h): 5.3 µM; IC50 ([12]; H2030, 72 h): 13.8 µM; IC50 ([13]; H2122, 72 h): 11.2 µM; IC50 ([14]; H460, 72 h): 13.8 µM
O=C(c1cc(Cc2n[nH]c(=O)c3ccccc23)ccc1F)N1CCN([N+]([O-])=NOc2ccc([N+](=O)[O-])cc2[N+](=O)[O-])CC1 [JS-60-178, 2,4-dinitrophenyl 4-[2-fluoro-5-[(4-oxo-3H-phthalazin-1-yl)methyl]-benzoyl]piperazine-1-yl-1-ium-1,2-diolate]	6.7 µM	22.0 µM	15.0 µM	19.0 µM	12.3 µM	11.6 µM	4.0 µM	25.0 µM	19.0 µM	6.2 µM	6.6 µM	15.2 µM	11.0 µM	24.0 µM	0.0029 µM	strong apoptotic signal	increase in ROS generation	decompose within the cell releasing NO	cell permeable	IC50 ([1]; Homo sapiens, NCI-H1703, H1703, 72 h): 4.3 µM; IC50 ([2]; Homo sapiens): 13.5 µM; IC50 ([3]; Homo sapiens, NCI-H1355, H1355, 72 h): 8.2 µM; IC50 ([4]; Homo sapiens, NCI-H1792, H1792, 72 h): 12.7 µM; IC50 ([5]; Homo sapiens, NCI-H23, H23, 72 h, MTT, read-out: IC50): 8.4 µM; IC50 ([6]; Homo sapiens, NCI-H322M, H322M, MTT, read-out: IC50): 7.9 µM; IC50 ([7]; NCI-H1568, H1568, 72 h): 3 µM; IC50 ([8]; NCI-H2023, H2023, 72 h, MTT, read-out: IC50): 15 µM; IC50 ([9]; Homo sapiens, NCI-H1944, H1944, 72 h): 10.5 µM; IC50 ([10]; Homo sapiens, NCI-H441, H441, 72 h): 4.5 µM; IC50 ([11]; Homo sapiens, NCI-H1693, H1693, 72 h): 5.4 µM; IC50 ([12]; Homo sapiens, NCI-H2030, H2030, 72 h): 9.2 µM; IC50 ([13]; Homo sapiens, NCI-H2122, H2122, 72 h): 7.5 µM; IC50 ([14]; Homo sapiens, NCI-H460, H460, 72 h): 16.4 µM; IC50 [19]: 3 to 20 µM; comet signal compared with Olaparib (20 μm) ([20]; 5 μM, 24 hours): stronger comet signal; DNA strand break damage by Comet assay ([20]; 24 hours treatment): significant DNA strand break damage
O=C(c1cc(Cc2n[nH]c(=O)c3ccccc23)ccc1F)N1CCN(C(=O)C2CC2)CC1 [Olaparib, olaparib, reference compound]		100 µM	113 µM	38 µM	70 µM	360 µM	113 µM	85 µM	88 µM	84 µM	65 µM	117 µM	140 µM	37 µM		did not trigger apoptosis				IC50 ([5]; Homo sapiens, NCI-H23, 72 h): 10 µM; IC50 ([6]; Homo sapiens, NCI-H322M): 50 µM; IC50 ([8]; NCI-H2023, 72 h): 20 µM
